Reference: publication PMC3375359 (Journal of Medicinal Chemistry, 2012)

Biological target: T1, human MOR (Homo sapiens, UniProt P35372)
T1 sequence (P35372 whole entry): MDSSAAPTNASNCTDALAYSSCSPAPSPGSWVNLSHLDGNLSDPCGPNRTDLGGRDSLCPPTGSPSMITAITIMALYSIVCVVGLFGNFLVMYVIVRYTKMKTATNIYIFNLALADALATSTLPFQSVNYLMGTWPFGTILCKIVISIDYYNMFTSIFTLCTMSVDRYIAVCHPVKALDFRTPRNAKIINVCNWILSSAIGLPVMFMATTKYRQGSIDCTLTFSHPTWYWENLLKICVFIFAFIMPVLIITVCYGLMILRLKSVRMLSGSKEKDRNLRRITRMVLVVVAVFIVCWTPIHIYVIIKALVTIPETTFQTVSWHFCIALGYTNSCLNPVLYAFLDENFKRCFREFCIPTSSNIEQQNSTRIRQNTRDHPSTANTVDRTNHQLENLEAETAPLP
Assay: not given
Format: binding
Details: not given
With Nc1ccc2c(c1)[C@@]13CCCC[C@H]1[C@@H](C2)N(CC1CC1)CC3 [Compound 2c] the “Selectivity MOR/KOR/DOR” value was 7/1/830.
In the case of COc1ccccc1CNc1ccc2c(c1)[C@@]13CCCC[C@H]1[C@@H](C2)N(CC1CCC1)CC3 [Compound 3a, (−)-17-(cyclobutylmethyl)-N-(2-methoxybenzyl)-morphinan-3-amine], the “Selectivity MOR/KOR/DOR” value is reported as 1/1/28.
With COc1cccc(CNc2ccc3c(c2)[C@@]24CCCC[C@H]2[C@@H](C3)N(CC2CCC2)CC4)c1 [Compound 3b, (−)-17-(cyclobutylmethyl)-N-(3-methoxybenzyl)-morphinan-3-amine] the “Selectivity MOR/KOR/DOR” value was 1/5/220.
For Clc1ccc(CNc2ccc3c(c2)[C@@]24CCCC[C@H]2[C@@H](C3)N(CC2CCC2)CC4)cc1 [Compound 3d, (−)-17-(cyclobutylmethyl)-N-(4-chlorobenzyl)-morphinan-3-amine], the “Selectivity MOR/KOR/DOR” value was 1/3/59.
For COc1ccccc1CNc1ccc2c(c1)[C@@]13CCCC[C@H]1[C@@H](C2)N(CC1CC1)CC3 [Compound 3f, (−)-17-(cyclopropylmethyl)-N-(2-methoxybenzyl)-morphinan-3-amine], the “Selectivity MOR/KOR/DOR” value was 1/1/130.
For COc1cccc(CNc2ccc3c(c2)[C@@]24CCCC[C@H]2[C@@H](C3)N(CC2CC2)CC4)c1 [Compound 3g, (−)-17-(cyclopropylmethyl)-N-(3-methoxybenzyl)-morphinan-3-amine], the “Selectivity MOR/KOR/DOR” value was 1/3/220.
With Oc1ccccc1CNc1ccc2c(c1)[C@@]13CCCC[C@H]1[C@@H](C2)N(CC1CCC1)CC3 [Compound 4a, (−)-17-(cyclobutylmethyl)-N-(2-hydroxybenzyl)-morphinan-3-amine] the “Selectivity MOR/KOR/DOR” value was 1/1/65.
In the case of Oc1cccc(CNc2ccc3c(c2)[C@@]24CCCC[C@H]2[C@@H](C3)N(CC2CCC2)CC4)c1 [Compound 4b, (−)-17-(cyclobutylmethyl)-N-(3-hydroxybenzyl)-morphinan-3-amine], the “Selectivity MOR/KOR/DOR” value is reported as 1/6/720.
With Oc1ccccc1CNc1ccc2c(c1)[C@@]13CCCC[C@H]1[C@@H](C2)N(CC1CC1)CC3 [Compound 4d, (−)-17-(cyclopropylmethyl)-N-(2-hydroxybenzyl)morphinan-3-amine] the “Selectivity MOR/KOR/DOR” value was 10/1/150.
In the case of COc1ccccc1CN(C)c1ccc2c(c1)[C@@]13CCCC[C@H]1[C@@H](C2)N(CC1CCC1)CC3 [Compound 5a, (−)-17-(cyclobutylmethyl)-N-methyl-N-(2-methoxybenzyl)-morphinan-3-amine], the “Selectivity MOR/KOR/DOR” value is reported as 1/1/14.
With COc1cccc(CN(C)c2ccc3c(c2)[C@@]24CCCC[C@H]2[C@@H](C3)N(CC2CCC2)CC4)c1 [Compound 5b] the “Selectivity MOR/KOR/DOR” value was 1/2/27.

Same assay, conditions: Table 1; ratio of Ki values
For COc1ccc(CNc2ccc3c(c2)[C@@]24CCCC[C@H]2[C@@H](C3)N(CC2CCC2)CC4)cc1 [Compound 3c, (−)-17-(cyclobutylmethyl)-N-(4-methoxybenzyl)-morphinan-3-amine], the “Selectivity MOR/KOR/DOR” value was 1/5/300.
With c1cc2c(cc1CNc1ccc3c(c1)[C@@]14CCCC[C@H]1[C@@H](C3)N(CC1CCC1)CC4)OCO2 [Compound 3e, (−)-17-(cyclobutylmethyl)-N-(3,4-methylenedioxybenzyl)morphinan-3-amine] the “Selectivity MOR/KOR/DOR” value was 1/3/160.
For COc1ccc(CNc2ccc3c(c2)[C@@]24CCCC[C@H]2[C@@H](C3)N(CC2CC2)CC4)cc1 [Compound 3h, (−)-17-(cyclopropylmethyl)-N-(4-methoxybenzyl)-morphinan-3-amine], the “Selectivity MOR/KOR/DOR” value was 1/2/65.
With c1cc2c(cc1CNc1ccc3c(c1)[C@@]14CCCC[C@H]1[C@@H](C3)N(CC1CC1)CC4)OCO2 [Compound 3i, (−)-17-(cyclopropylmethyl)-N-(3,4-methylenedihydroxybenzyl)-morphinan-3-amine] the “Selectivity MOR/KOR/DOR” value was 1/3/120.
For O=[N+]([O-])c1cccc(CNc2ccc3c(c2)[C@@]24CCCC[C@H]2[C@@H](C3)N(CC2CCC2)CC4)c1 [Compound 3k, (−)-3-(3′-nitrobenzyl)amino-17-cyclobutylmethylmorphinan], the “Selectivity MOR/KOR/DOR” value was 1/3/350.
For Oc1ccc(CNc2ccc3c(c2)[C@@]24CCCC[C@H]2[C@@H](C3)N(CC2CCC2)CC4)cc1 [Compound 4c, (−)-17-(cyclobutylmethyl)-N-(4-hydroxybenzyl)morphinan-3-amine], the “Selectivity MOR/KOR/DOR” value was 1/7/340.
With Oc1cccc(CNc2ccc3c(c2)[C@@]24CCCC[C@H]2[C@@H](C3)N(CC2CC2)CC4)c1 [Compound 4e, (−)-17-(cyclopropylmethyl)-N-(3-hydroxybenzyl)-morphinan-3-amine] the “Selectivity MOR/KOR/DOR” value was 1/2/260.
With Oc1ccc(CNc2ccc3c(c2)[C@@]24CCCC[C@H]2[C@@H](C3)N(CC2CC2)CC4)cc1 [Compound 4f, (−)-17-(cyclopropylmethyl)-N-(4-hydroxybenzyl)-morphinan-3-amine] the “Selectivity MOR/KOR/DOR” value was 1/1/44.
With CN1CC[C@]23CCCC[C@H]2[C@H]1Cc1ccc(NCc2cccc(O)c2)cc13 [Compound 4g] the “Selectivity MOR/KOR/DOR” value was 1/24/1700.
In the case of COc1ccc(CN(C)c2ccc3c(c2)[C@@]24CCCC[C@H]2[C@@H](C3)N(CC2CCC2)CC4)cc1 [Compound 5c, (−)-17-(cyclobutylmethyl)-N-methyl-N-(4-methyloxybenzyl)-morphinan-3-amine], the “Selectivity MOR/KOR/DOR” value is reported as 1/1/34.
With CN(Cc1ccc(Cl)cc1)c1ccc2c(c1)[C@@]13CCCC[C@H]1[C@@H](C2)N(CC1CCC1)CC3 [Compound 5d, (−)-17-(cyclobutylmethyl)-N-methyl-N-(4-chlorobenzyl)-morphinan-3-amine] the “Selectivity MOR/KOR/DOR” value was 1/1/28.
In the case of CN(Cc1cccc(O)c1)c1ccc2c(c1)[C@@]13CCCC[C@H]1[C@@H](C2)N(CC1CCC1)CC3 [Compound 6b], the “Selectivity MOR/KOR/DOR” value is reported as 1/1/10.
With CN(Cc1ccc(O)cc1)c1ccc2c(c1)[C@@]13CCCC[C@H]1[C@@H](C2)N(CC1CCC1)CC3 [Compound 6c, (−)-17-(cyclobutylmethyl)-N-methyl-N-(4-hydroxybenzyl)-morphinan-3-amine] the “Selectivity MOR/KOR/DOR” value was 1/1/170.

Same assay, conditions: from binding affinities
In the case of CN1CC[C@]23CCCC[C@H]2[C@H]1Cc1ccc(NCc2cccc(O)c2)cc13 [Compound 4g], the “selectivity MOR to DOR” value is reported as about 2000 fold.

Biological target: human KOR (Homo sapiens, UniProt P41145)
Sequence (P41145 whole entry): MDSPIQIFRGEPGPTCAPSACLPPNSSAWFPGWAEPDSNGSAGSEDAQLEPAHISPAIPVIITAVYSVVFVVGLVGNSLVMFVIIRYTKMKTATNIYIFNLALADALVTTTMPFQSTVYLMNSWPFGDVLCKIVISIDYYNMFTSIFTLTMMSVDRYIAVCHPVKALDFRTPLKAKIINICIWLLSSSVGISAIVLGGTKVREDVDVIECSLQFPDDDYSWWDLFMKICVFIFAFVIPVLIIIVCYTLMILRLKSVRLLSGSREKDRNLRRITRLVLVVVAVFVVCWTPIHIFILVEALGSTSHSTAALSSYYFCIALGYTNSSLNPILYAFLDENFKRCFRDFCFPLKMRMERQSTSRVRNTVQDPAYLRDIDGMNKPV
Assay: not given
Details: from binding affinities
In the case of Oc1cccc(CNc2ccc3c(c2)C[C@@H]2[C@@H]4CCCC[C@]34CCN2CC2CC2)c1 [Compound 17, 2-(3′-Hydroxybenzyl)amino-17-cyclopropylmethylmorphinan], the “selectivity KOR over the DORs” value is reported as > 10,000 fold.

Biological target: human μ opioid receptor (Homo sapiens, UniProt P35372)
Sequence (P35372 whole entry): as the sequence (P35372 whole entry) above
Assay: [35S]GTPγS binding mediated by the mu opioid receptor
Format: biochemical
Details: [35S]GTPγS binding assay, in words
With CN1CC[C@]23CCCC[C@H]2[C@H]1Cc1ccc(NCc2cccc(O)c2)cc13 [Compound 4g] the “functional activity at MOR (agonist character)” value was “full agonist”.
For CN1CC[C@]23c4c5ccc(NCc6cccc(O)c6)c4O[C@H]2[C@@H](O)C=C[C@H]3[C@H]1C5 [Compound 12b, 3-(3′-hydroxybenzyl)amino-7,8-didehydro-4,5-epoxy-17-methyl-(5α,6α)-morphinan-6-ol], the “functional activity at MOR (agonist character)” value was “full agonists”.

Biological target: T1, human MOR
Assay: not given
Details: Table 1; ratio of Ki values; cited from earlier work
In the case of CN1CC[C@]23CCCC[C@H]2[C@H]1Cc1ccc(N)cc13 [Compound 2a], the “Selectivity MOR/KOR/DOR” value is given as 1/14/190.
For Nc1ccc2c(c1)[C@@]13CCCC[C@H]1[C@@H](C2)N(CC1CCC1)CC3 [Compound 2b], the “Selectivity MOR/KOR/DOR” value is listed as 2/1/100.
For c1ccc(CNc2ccc3c(c2)[C@@]24CCCC[C@H]2[C@@H](C3)N(CC2CC2)CC4)cc1 [Compound 8a, reference compound], the “Selectivity MOR/KOR/DOR” value is given as 1/1/112.
For c1ccc(CNc2ccc3c(c2)[C@@]24CCCC[C@H]2[C@@H](C3)N(CC2CCC2)CC4)cc1 [Compound 8d, reference compound], the “Selectivity MOR/KOR/DOR” value is listed as 1/2/76.
